Assay results taken from patent US5780604A, “11,12-cyclic phosphite or phosphate derivatives of erythromycin and related macrolides” (Abbott Laboratories, priority 1997, dated 1998).
Values after ≈ are worked out from the molar mass of the structure shown.

Assays:
Gram-negative bacteria = conditions: background statement; cited from earlier work
[1] = background statement; cited from earlier work
[2] = system: gram-positive bacteria, mycoplasmas; conditions: background statement, U.S. Pat. No. 4,331,803; cited from earlier work
Escherichia coli JUHL = assay: In vitro antibacterial activity (MIC), agar dilution; assay type: cell-based; conditions: unit assumed
Procedure: (§1) Representative compounds of the present invention were assayed in vitro for antibacterial activity as follows: Twelve petri dishes containing successive aqueous dilutions of the test compound mixed with 10 mL of sterilized Brain Heart Infusion (BHI) agar (Difco 0418-01-5) were prepared. Each plate was inoculated with 1:100 (or 1:10 for slow-growing strains, such as Micrococcus and Streptococcus) dilutions of up to 32 different microorganisms, using a Steers replicator block. […] In addition, a control plate, using BHI agar containing no test compound, was prepared and incubated at the beginning and end of each test.
(§2) An additional plate containing a compound having known susceptibility patterns for the organisms being tested and belonging to the same antibiotic class as the test compound was also prepared and incubated as a further control, as well as to provide test-to-test comparability.
(§3) After incubation, each plate was visually inspected. The minimum inhibitory concentration (MIC) was defined as the lowest concentration of drug yielding no growth, a slight haze, or sparsely isolated colonies on the inoculum spot as compared to the growth control.

[3] = system: Haemophilis Influenzae DILL AMP R; assay type: cell-based; conditions: BHI agar, 35°-37° C., 20 to 24 hours; unit assumed
Procedure: as §1, §2, §3

Escherichia coli DC-2 = assay: In vitro antibacterial activity (MIC), agar dilution; assay type: cell-based; conditions: BHI agar, 35°-37° C., 20 to 24 hours; unit assumed
Procedure: as §1, §2, §3

[4] = system: Streptococcus Pheumoniae 5649; assay: as above; assay type: cell-based; conditions: BHI agar, 35°-37° C., 20 to 24 hours; unit assumed
Procedure: as §1, §2, §3

[5] = system: Staphylococcus aureus 1775; assay: as above; assay type: cell-based; conditions: BHI agar, 35°-37° C., 20 to 24 hours; unit assumed
Procedure: as §1, §2, §3

Escherichia coli SS = assay: as above; assay type: cell-based; conditions: BHI agar, 35°-37° C., 20 to 24 hours; unit assumed
Procedure: as §1, §2, §3

[6] = system: Streptococcus Pheumoniae GYR 1171; assay: as above; assay type: cell-based; conditions: BHI agar, 35°-37° C., 20 to 24 hours; unit assumed
Procedure: as §1, §2, §3

Candida albicans CCH 442 = assay: as above; assay type: cell-based; conditions: BHI agar, 35°-37° C., 20 to 24 hours; unit assumed
Procedure: as §1, §2, §3

[7] = system: Nocardia Asteroides ATCC9970; assay: as above; assay type: cell-based; conditions: BHI agar, 35°-37° C., 20 to 24 hours; unit assumed
Procedure: as §1, §2, §3

[8] = system: Mycobacterium smegmatis ATCC 114; assay: as above; assay type: cell-based; conditions: BHI agar, 35°-37° C., 20 to 24 hours; unit assumed
Procedure: as §1, §2, §3

[9] = system: Streptococcus pyogenes 930; assay: as above; assay type: cell-based; conditions: BHI agar, 35°-37° C., 20 to 24 hours; unit assumed
Procedure: as §1, §2, §3

[10] = system: Staphylococcus aureus A-5278; assay: as above; assay type: cell-based; conditions: BHI agar, 35°-37° C., 20 to 24 hours; unit assumed
Procedure: as §1, §2, §3

[11] = system: Streptococcus pyogenes PIU 2548; assay type: cell-based; conditions: BHI agar, 35°-37° C., 20 to 24 hours; unit assumed
Procedure: as §1, §2, §3

[12] = system: Streptococcus bovis A-5169; assay type: cell-based; conditions: BHI agar, 35°-37° C., 20 to 24 hours; unit assumed
Procedure: as §1, §2, §3

[13] = system: Staphylococcus aureus ATCC 6538P; assay type: cell-based; conditions: BHI agar, 35°-37° C., 20 to 24 hours; unit assumed
Procedure: as §1, §2, §3

[14] = system: Streptococcus pyogenes EES61; assay type: cell-based; conditions: BHI agar, 35°-37° C., 20 to 24 hours; unit assumed
Procedure: as §1, §2, §3

[15] = system: Staphylococcus aureus NCTC10649M; assay type: cell-based; conditions: BHI agar, 35°-37° C., 20 to 24 hours; unit assumed
Procedure: as §1, §2, §3

[16] = system: Staphylococcus aureus A5177; assay type: cell-based; conditions: BHI agar, 35°-37° C., 20 to 24 hours; unit assumed
Procedure: as §1, §2, §3

[17] = system: Streptococcus agalactiae CMX 508; assay type: cell-based; conditions: BHI agar, 35°-37° C., 20 to 24 hours; unit assumed
Procedure: as §1, §2, §3

[18] = system: Staphylococcus epidermidis 3519; assay type: cell-based; conditions: BHI agar, 35°-37° C., 20 to 24 hours; unit assumed
Procedure: as §1, §2, §3

[19] = system: Micrococcus luteus ATCC 9341; assay type: cell-based; conditions: BHI agar, 35°-37° C., 20 to 24 hours; unit assumed
Procedure: as §1, §2, §3

[20] = system: Micrococcus luteus ATCC 4698; assay type: cell-based; conditions: BHI agar, 35°-37° C., 20 to 24 hours; unit assumed
Procedure: as §1, §2, §3

[21] = system: Enterococcus faecium ATCC 8043; assay type: cell-based; conditions: BHI agar, 35°-37° C., 20 to 24 hours; unit assumed
Procedure: as §1, §2, §3

[22] = system: Staphylococcus aureus CMX 553; assay type: cell-based; conditions: BHI agar, 35°-37° C., 20 to 24 hours; unit assumed
Procedure: as §1, §2, §3

[23] = system: Staphylococcus aureus CMX 642A; assay type: cell-based; conditions: BHI agar, 35°-37° C., 20 to 24 hours; unit assumed
Procedure: as §1, §2, §3

[24] = BHI agar, 35°-37° C., 20 to 24 hours

| SMILES | activity against Gram-negative bacteria (Gram-negative bacteria) | MIC [3] | MIC (Escherichia coli DC-2) | MIC [4] | MIC [5] | MIC (Escherichia coli SS) | MIC (Escherichia coli JUHL; [24]) | MIC [6] | MIC (Candida albicans CCH 442) | MIC [7] | MIC [8] | MIC [9] | MIC [10] | MIC [11] | MIC [12] | MIC [13] | MIC [14] | MIC [15] | MIC [16] | MIC [17] | other results |
| --- | --- | --- | --- | --- | --- | --- | --- | --- | --- | --- | --- | --- | --- | --- | --- | --- | --- | --- | --- | --- | --- |
| CC[C@H]1OC(=O)[C@H](C)[C@@H](O[C@H]2C[C@@](C)(OC)[C@@H](O)[C@H](C)O2)[C@H](C)[C@@H](O[C@@H]2O[C@H](C)C[C@H](N(C)C)[C@H]2O)[C@](C)(OC)C[C@@H](C)C(=O)[C@H](C)[C@@H](O)[C@]1(C)O [6-O-methyl erythromycin A] | only weak antimicrobial activity | – | – | – | – | – | – | – | – | – | – | – | – | – | – | – | – | – | – | – | acid stability [1]: poor acid stability; antibacterial activity against many gram-positive bacteria, mycoplasmas, etc. [2]: desirable antibacterial activity |
| CC[C@H]1OC(=O)[C@H](C)[C@@H](O[C@H]2C[C@@](C)(OC)[C@@H](O)[C@H](C)O2)[C@H](C)[C@@H](O[C@@H]2O[C@H](C)C[C@H](N(C)C)[C@H]2O)[C@](C)(O)C[C@@H](C)C(=O)[C@H](C)[C@@H](O)[C@]1(C)O [Ery. A, Erythromycin A] | only weak activity | 4 µg/mL (≈ 5.45 µM) | – | – | – | – | – | – | – | – | – | – | – | – | – | – | – | – | – | – | MIC (Escherichia coli JUHL): > 100 µg/mL |
| CC[C@H]1OC(=O)[C@H](C)C(=O)[C@H](C)[C@@H](O[C@@H]2O[C@H](C)C[C@H](N(C)C)[C@H]2O)[C@](C)(OC)C[C@@H](C)C(=O)[C@H](C)[C@H]2OP(OC)O[C@@]21C (some centres unmarked) [Example 3] | – | > 128 µg/mL | > 100 µg/mL | 16 µg/mL (≈ 24.7 µM) | > 100 µg/mL | 50 µg/mL (≈ 77.2 µM) | > 100 µg/mL | 8 µg/mL (≈ 12.4 µM) | > 100 µg/mL | 12.5 µg/mL (≈ 19.3 µM) | 100 µg/mL (≈ 154 µM) | > 100 µg/mL | > 100 µg/mL | 12.5 µg/mL (≈ 19.3 µM) | 12.5 µg/mL (≈ 19.3 µM) | 25 µg/mL (≈ 38.6 µM) | 12.5 µg/mL (≈ 19.3 µM) | 25 µg/mL (≈ 38.6 µM) | 25 µg/mL (≈ 38.6 µM) | 12.5 µg/mL (≈ 19.3 µM) | MIC [18]: 25 µg/mL (≈ 38.6 µM); MIC [19]: 25 µg/mL (≈ 38.6 µM); MIC [20]: 25 µg/mL (≈ 38.6 µM); MIC [21]: 25 µg/mL (≈ 38.6 µM); MIC [22]: 50 µg/mL (≈ 77.2 µM); MIC [23]: 25 µg/mL (≈ 38.6 µM) |
| CCOP1O[C@@H]2[C@@H](C)C(=O)[C@H](C)C[C@@](C)(OC)[C@H](O[C@@H]3O[C@H](C)C[C@H](N(C)C)[C@H]3O)[C@@H](C)C(=O)[C@@H](C)C(=O)O[C@H](CC)[C@@]2(C)O1 (some centres unmarked) [Example 5] | – | > 128 µg/mL | > 100 µg/mL | 16 µg/mL (≈ 24.2 µM) | > 100 µg/mL | 50 µg/mL (≈ 75.6 µM) | > 100 µg/mL | 4 µg/mL (≈ 6.04 µM) | > 100 µg/mL | 12.5 µg/mL (≈ 18.9 µM) | 100 µg/mL (≈ 151 µM) | > 100 µg/mL | > 100 µg/mL | 12.5 µg/mL (≈ 18.9 µM) | 12.5 µg/mL (≈ 18.9 µM) | 25 µg/mL (≈ 37.8 µM) | 12.5 µg/mL (≈ 18.9 µM) | 25 µg/mL (≈ 37.8 µM) | 25 µg/mL (≈ 37.8 µM) | 12.5 µg/mL (≈ 18.9 µM) | MIC [18]: 25 µg/mL (≈ 37.8 µM); MIC [19]: 25 µg/mL (≈ 37.8 µM); MIC [20]: 50 µg/mL (≈ 75.6 µM); MIC [21]: 25 µg/mL (≈ 37.8 µM); MIC [22]: 50 µg/mL (≈ 75.6 µM); MIC [23]: 50 µg/mL (≈ 75.6 µM) |
